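How tested: cells in 96-well plates exposed to compound for 48 hours at five concentrations. Here, GI50 denotes the concentration required for 50% inhibition of growth.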 Calls of active or inactive are those of the source. Rule as the data show it: active = GI50 up to about 1.1 µM and inactive = higher.
Key:
Experiment in all cases: NCI tumour cell line growth inhibition, 48 h
[1] = test system: 786-0
[2] = test system: A549
[3] = test system: ACHN
[4] = test system: CAKI-1
[5] = test system: CCRF-CEM
[6] = test system: DLD-1
[7] = test system: DMS-114
[8] = test system: EKVX
[9] = test system: HCC 2998
[10] = test system: HCT-116
[11] = test system: HCT-15
[12] = test system: HL-60
[13] = test system: HOP-18
[14] = test system: HOP-62
[15] = test system: HOP-92
[16] = test system: HT-29
[17] = test system: IGROV-1
[18] = test system: K562
[19] = test system: KM12
[20] = test system: LOX IMVI
[21] = test system: LXFL 529
[22] = test system: M14
[23] = test system: M19-MEL
[24] = test system: MOLT-4
[25] = test system: Malme-3M
[26] = test system: NCI-H226
[27] = test system: NCI-H23
[28] = test system: NCI-H460
[29] = test system: NCI-H522
[30] = test system: OVCAR-3
[31] = test system: OVCAR-4
[32] = test system: OVCAR-5
[33] = test system: OVCAR-8
[34] = test system: RPMI-8226
[35] = test system: RXF 393
[36] = test system: RXF 631
[37] = test system: SF-268
[38] = test system: SF-295
[39] = test system: SF-539
[40] = test system: SK-MEL-28
[41] = test system: SK-MEL-2
[42] = test system: SK-MEL-5
[43] = test system: SK-OV-3
[44] = test system: SN12C
[45] = test system: SNB-19
[46] = test system: SNB-78
[47] = test system: SW-620
[48] = test system: TK-10
[49] = test system: U-251
[50] = test system: UACC-257
[51] = test system: UACC-62
[52] = test system: UO-31
[53] = test system: XF498

`N#CC(C(=O)/C(=N/N)C(C#N)c1ccccc1)c1ccccc1` (stereo not drawn) was tested, and the GI50 [1] was > 100 µM (inactive), the GI50 [2] was > 100 µM (inactive) and the GI50 [3] was > 100 µM (inactive). For the same compound, the GI50 [4] was > 100 µM (inactive), the GI50 [5] was > 100 µM (inactive) and the GI50 [6] was > 100 µM (inactive). For the same compound, the GI50 [7] was > 100 µM (inactive), the GI50 [8] was > 100 µM (inactive) and the GI50 [9] was > 100 µM (inactive). For the same compound, the GI50 [10] was > 100 µM (inactive), the GI50 [11] was > 100 µM and the GI50 [12] was > 100 µM (inactive). For the same compound, the GI50 [13] was > 100 µM (inactive), the GI50 [14] was > 100 µM (inactive) and the GI50 [15] was > 100 µM (inactive). For the same compound, the GI50 [16] was > 100 µM (inactive), the GI50 [17] was > 100 µM (inactive) and the GI50 [18] was > 100 µM (inactive). For the same compound, the GI50 [19] was > 100 µM (inactive), the GI50 [20] was > 100 µM (inactive) and the GI50 [21] was > 100 µM (inactive). The GI50 [22] was > 100 µM (inactive), the GI50 [23] was > 100 µM (inactive) and the GI50 [24] was > 100 µM (inactive). The GI50 [25] was > 100 µM (inactive), the GI50 [26] was > 100 µM (inactive) and the GI50 [27] was > 100 µM (inactive). For the same compound, the GI50 [28] was > 100 µM (inactive), the GI50 [29] was > 100 µM (inactive) and the GI50 [30] was > 100 µM (inactive). For the same compound, the GI50 [31] was > 100 µM (inactive), the GI50 [32] was > 100 µM (inactive) and the GI50 [33] was > 100 µM (inactive). The GI50 [34] was > 100 µM (inactive), the GI50 [35] was > 100 µM (inactive) and the GI50 [36] was > 100 µM (inactive). The GI50 [37] was > 100 µM (inactive), the GI50 [38] was > 100 µM (inactive) and the GI50 [39] was > 100 µM (inactive). For the same compound, the GI50 [40] was > 100 µM (inactive), the GI50 [41] was > 100 µM (inactive) and the GI50 [42] was > 100 µM (inactive). The GI50 [43] was > 100 µM (inactive), the GI50 [44] was > 100 µM (inactive) and the GI50 [45] was > 100 µM (inactive). For the same compound, the GI50 [46] was > 100 µM (inactive), the GI50 [47] was > 100 µM (inactive) and the GI50 [48] was > 100 µM (inactive). The GI50 [49] was > 100 µM (inactive), the GI50 [50] was > 100 µM (inactive) and the GI50 [51] was > 100 µM (inactive). For the same compound, the GI50 [52] was > 100 µM (inactive) and the GI50 [53] was > 100 µM (inactive).

Reference: ChEMBL document CHEMBL1201862, “PubChem BioAssay data set” (2004)
